Here are results for 4 molecules from US12678451B2, “Cannabinoid and omega fatty acid compositions and methods of using” (GreenWay Herbal Products, LLC, priority 2019, dated 2026).

The test system of data set [1] is cytokines induced in mice by LPS. The data set can be described thus: Mouse LPS cytokine animal model (Example 3), cannabinoids in PB with 5% DMSO. It is filed as in vivo. To be noted: 5 mg/kg. On the procedure: This experiment was conducted to compare the ability of CBD, CBDA or the 1:1 equimolar mixture of CBD:CBDA to suppress the induction of cytokines whose expression levels were induced in mice by LPS.
The ability of agents to suppress the immune system can be tested in vivo using an LPS mouse model, in which mice are injected with LPS to cause an immune response (Field et al., 1970; Ghezzi P and Sipe J D, 1988).
Four 20 g female C57BL/6 mice were used per group. The experimental mice were first injected with 0.1 mL of the cannabinoids prepared at 1 mg/mL in phosphate buffer (PB) with 5% DMSO to yield a final dose of 5 mg/kg, followed one hour later by the injection of 0.1 mL of 0.02 mg/mL LPS in PB to yield a final dose of 0.1 mg/kg. Mice injected with 0.1 mL of PB with 5% DMSO and 0.1 mL of PBS served as a non-induced control and mice injected with 0.1 mL of PB with 5% DMSO and 0.1 mL of 0.02 mg/mL LPS in PB served as a LPS untreated control. After allowing two hours for the immune system to be induced by LPS, the mice were then euthanized, heart punctures performed to extract the blood, which was allowed to coagulate on ice for 1 hour before centrifuging to isolate the serum. The levels of 32 of the most common mouse cytokines (Eve Technologies, Calgary, Canada, Table 9) were determined by multi-plex analysis.

The test system of data set [2] is differentiated U-937 cells. The data set can be described thus: Human cellular U-937 autophagy induction assay (anti-LC3). In kind it is cell-based. The method, then:
The induction of autophagy was monitored using anti-LC3 antibodies to detect LC3 on the autophagosome in human U-937 pro-monocytic histiocytic lymphoma cells (ATCC, Manassas, Va., USA), which generate morphologies characteristic of macrophages upon induction by various stimuli. U-937 cells were cultured in RPMI-1640 medium with L-glutamine and sodium bicarbonate (Sigma-Aldrich, St Louis, Mo.) supplemented with 10% fetal bovine serum (FBS) and 1% penicillin in 25 cm2 tissue flasks at 37° C. in a 5% CO2 humidified atmosphere and passaged every 2-3 days. U-937 cells were seeded in 96 well plates at 5×10^5 cells/mL and stimulated with 100 ng/mL PMA to induce differentiation for 24 hours. The cells were then treated with the various cannabinoids at 1.0 μM concentrations for 12 hours. 30 μM chloroquine was used as a positive control. After treatment, the cells were fixed using 3.7% formaldehyde in PBS for 15 minutes at room temperature and washed with PBS to remove the fixative. Permeabilization reagent (0.2% Triton X-100 in PBS) (Sigma-Aldrich) was added, the cells were incubated for 15 minutes at room temperature and then the cells were washed with PBS to remove the permeabilization reagent. LC3B rabbit polyclonal antibody (Invitrogen) was added at a final concentration of 0.5 μg/ml for 1 hour at room temperature and the cells were washed with PBS remove the primary antibody. Secondary conjugated goat anti-rabbit polyclonal antibody (Thermo Scientific) was then added at a final concentration of 2.0 μg/ml for 1 hour at room temperature. The cells were washed, Hoechst dye was added to stain the nucleus and the cells were imaged using an Arrayscan VTI high-content screening (HCS) reader (Thermo Scientific) with the appropriate filters and the data was analyzed using the vHCS Scan software.
Chloroquine at a concentration of 30 μM was included as a positive control. The ability to induce autophagy was determined as a percentage with respect to the untreated control.

In data set [3] the test system is cytokine levels in differentiated THP-1 cells treated with LPS. The data set can be described thus: THP-1 human cellular LPS cytokine assay, three independent experiments, total averaged suppression.
Method: Cells were seeded onto 24-, or 12-well plates and incubated for 48 hours to 72 hours to allow for differentiation. […] Supernatants were collected for quantification of human cytokine levels to assess the cytokine response. Cells remaining after the supernatant collection were tested to ensure they had at least 90% viability as determined by Alamar Blue assays. To conduct the Alamar Blue assays, supernatants were replaced with culture medium containing 1× Alamar Blue reagent and incubated overnight. Cell viability was assessed by measuring relative fluorescent units (RFU) on the SpectraMax M2e microplate reader (Molecular Devices Inc., Sunnyvale, Calif., USA) at Excitation 560 nm and Emission 590 nm. Controls included untreated cells with DMSO at the same concentration as the treated cells, LPS stimulated cells with DMSO at the same concentration as the treated cells and LPS stimulated cell with the various treatments. The levels of 42 of the most common human cytokines (Eve Technologies, Calgary, Canada Table 6) were determined by multi-plex analysis.
For this reason, the level of cytokine suppression was determined for each cytokine by each cannabinoid that was tested and the total averaged suppression for each cannabinoid was determined by dividing the total suppression by the number of the cytokines that were analyzed.
The nature of data set [4]: DPPH antioxidant assay. To be noted: 100 μM. It is filed as biochemical. The method, then: The ability of the cannabinoids to act as potential antioxidants was assessed using the 2,2-diphenyl-1-picrylhydrazyl (DPPH) antioxidant assay. The cannabinoids CBDA, CBD, CBDVA, CBDV, CBG, THCV, and the 1:1 CBD:CBDA mixture had the highest antioxidant activities with radical scavenging activities of 38.19%, 48.00%, 43.81%, 44.21%, 44.28%, 45.71%, and 43.74%, respectively.
The 2,2-diphenyl-1-picrylhydrazyl (DPPH) free radical (Alfa Aesar) was prepared at 0.1 mM in ethanol. The cannabinoids were tested at a final concentration of 100 uM. 2 uL of 7.5 mM stock solutions of the cannabinoids to be tested in DMSO were added to 148 uL of 0.1 mM DPPH to achieve a final concentration of 100 μM in the assay. Ascorbic acid (Thermo Scientific) at a final concentration of 10 mg/ml was used as a positive control. The reaction mixture was incubated in the dark at room temperature for 1 hour, the absorbance of the mixture was read at 517 nm using a Spectra Max 5M microplate reader (Molecular Devices, LLC, Sunnyvale, Calif., USA) and the absorbance was converted to percent radical scavenging activity (% RSA) using the following formula: % RSA=[(Absorbance of the control−Absorbance of the sample)/(Absorbance of the control)]×100.
Free radical production occurs when the immune system is activated and antioxidants represent potential effective treatments for inflammatory conditions and autoimmune diseases. […] The DPPH antioxidant assay can be used to measure the ability of a compound to scavenge free radicals by measuring the ability of compounds to hydrogenate and reduce DPPH. The DPPH assay was conducted on CBCA, CBDA, CBDVA, CBGA, CBLA, CBNA, THCVA, and their decarboxylated derivatives as well as the 1:1 CBD:CBDA mixture.
Background: DPPH is a stable violet radical that fades when it is reduced.

In data set [5] the test system is cytokine levels in differentiated THP-1 cells treated with LPS. The data set can be described thus: THP-1 human cellular LPS cytokine assay, four independent experiments, per cytokine. It is filed as cell-based. The settings on record: LPS 20 ng/mL.
The test system of data set [6] is cytokines induced in mice by LPS. The data set can be described thus: Mouse LPS cytokine model, Example 6D, ALA, DHA and EPA omega-3 samples. It is filed as in vivo. The settings on record: mouse, in vivo. The method, then:
A series of experiments using a mouse LPS cytokine animal model were performed. In the mouse LPS cytokine animal model, mice were injected with LPS, which induced the immune response shortly after the mice were injected with one of the potential anti-inflammatory compounds under evaluation (the “test compound”). The efficacy of the test compound was evaluated based on its ability to reduce expression levels of inflammatory cytokines that were elevated due to the immune response. The test compounds included a cannabinoid, an omega fatty acid, and a cannabinoid-omega fatty acid composition.
The mice were intraperitoneally injected with 0.1 mL of the test compound. One hour later, the mice were intraperitoneally injected with 0.1 mL of LPS in phosphate buffered saline (PBS). Four hours later, a heart puncture was performed and the blood was allowed to clot to generate serum. 0.1 mL of the serum was diluted 1:2 with PBS and stored at −80° C. The serum was then sent to a laboratory where a mouse cytokine array/chemokine array 31-plex (MD31) analysis was performed that analyzed the expression levels of the 32 cytokines/chemokines listed in Table 9, above.
For each considered test compound, the ability of the test compound to suppress each inflammatory cytokine was calculated by determining the percent suppression.
36 female C57BL/6 mice that weighed approximately 20 g each were obtained and allowed to acclimate for one week after arrival with unlimited access to food and water. On the day of the study, the mice were weighed and split into eight groups of four mice each so that the average weight of each group was as close as possible to each other.
All of the omega fatty acid samples that were tested were diluted so the dose was 12.5 mg of total omega fatty acids per mouse. […] The omega fatty acids samples tested included: (1) pollock oil, 456 mg/mL omega unsaturated fatty acids. The pollock oil contained a mixture of anti-inflammatory omega-3, omega-7 and omega-9 unsaturated fatty acids. […] (2) Flaxseed oil, 656 mg/mL anti-inflammatory omega unsaturated fatty acids. The flaxseed oil contained a mixture of anti-inflammatory omega-3 and omega-9 unsaturated fatty acids. The omega-3 and omega-9 unsaturated fatty acids constituted 77.6% and […], respectively, of the anti-inflammatory omega fatty acids contained in the flaxseed oil. A 12.5 mg dose contained 9.7 mg of ALA in the triglyceride form. (3) Mono 2:1 DHA:EPA, 744 mg/mL omega-3 unsaturated fatty acids that were primarily DHA or EPA. A 12.5 mg dose contained 7.81 mg of DHA and 3.91 mg of EPA. The omega-3 unsaturated fatty acids were in the free mono form. […] A 12.5 mg dose contained 3.85 mg of DHA and 7.69 mg of EPA. The omega-3 unsaturated fatty acids were in the free mono form. (5) Tri 2:1 DHA:EPA, 678.9 mg/mL omega-3 unsaturated fatty acids that were primarily DHA or EPA. A 12.5 mg dose contained 7.88 mg of DHA and 3.94 mg of EPA. The omega-3 unsaturated fatty acids were in the triglyceride form. (6) Tri 1:2 DHA:EPA, 678.9 mg/mL omega-3 unsaturated fatty acids that were primarily DHA or EPA. A 12.5 mg dose contained 3.60 mg of DHA and 7.19 mg of EPA. The omega-3 unsaturated fatty acids were in the triglyceride form.

The conditions of data set [7]: rats; cited from earlier work.

In data set [1], `C=C(C)[C@@H]1CCC(C)=C[C@H]1c1c(O)cc(CCCCC)c(C(=O)O)c1O` [CBDA, 2,4-Dihydroxy-3-[(1R,6R)-6-isopropenyl-3-methyl-2-cyclohexen-1-yl]-6-pentylbenzoic acid] displayed an Average cytokine suppression of 13.71%, a GM-CSF suppression of 27.86%, an IFNγ suppression of 31.60% and an IL-1β suppression of 11.89%. Also, in data set [1], the IL-2 suppression amounted to 7.82%, the IL-6 suppression was determined as 6.09%, the “IL-12β p40 suppression” value was determined as 58.93% and the IL-13 suppression stood at 4.16%. Also, in data set [1], the IL-17 suppression came to 7.86%, the IP-10 suppression was found to be 4.58%, the KC suppression is reported as 18.15% and the LIF suppression was found to be 28.12%. For the same molecule, in data set [1], the M-CSF suppression was −51.56%, the MIP-1α suppression worked out at 14.86%, the MIP-1β suppression is listed as 9.12% and the MIP-2 suppression was determined as 20.19%. This molecule gave a TNF-α suppression in data set [1] of 19.69%. Also, in data set [2] (1.0 μM, 12 hours), the “Fluorescence (LC3)” value stood at 37.64. Also, the activation at 1 µM in data set [2] (Homo sapiens, U-937, 12 h, read-out: Induction of autophagy with respect to the untreated control) was -22%. In addition, in data set [3], the “effectiveness at reducing elevated cytokine levels relative to dexamethasone” value is “at least half as effective as dexamethasone”. The inhibition at 2 µM in data set [3] (Homo sapiens, THP-1, 4 h, read-out: % Cytokine Suppression (total averaged)) stood at 37.2%. Moreover, the “radical scavenging activity compared to the untreated control” value in data set [4] was “at least two-fold”. In addition, the “% RSA (radical scavenging activity)” value in data set [4] (1 hour) was determined as 38.19%. Moreover, in data set [5] (2 µM), the EGF suppression was determined as 5.34%, the FGF-β suppression is 30.37%, the Flt-3L suppression was determined as 47.81% and the G-CSF suppression is reported as 77.66%. In data set [5] (2 µM), this molecule came in with a GM-CSF suppression of 43.68%, an IFNγ suppression of 60.44%, an IL-1α suppression of 44.04% and an IL-1β suppression of 53.82%. In data set [5] (2 µM), the IL-4 suppression is 10.49%, the IL-6 suppression came to 69.39%, the IL-7 suppression stood at 37.62% and the IL-10 suppression is given as 23.20%. Moreover, in data set [5] (2 µM), the “IL-12 p70 suppression” value is listed as 8.24%, the IL-15 suppression is on record as 47.99%, the IL-18 suppression is listed as 37.34% and the IP-10 suppression is 73.87%. In data set [5] (2 µM), this molecule gave an MCP-1 suppression of 54.97%, an MIP-1β suppression of 47.92%, a TNFα suppression of 28.56% and a TNFβ suppression of 45.83%. For the same molecule, in data set [5], the Average cytokine suppression stood at 42.43%.
Regarding `CC/C=C\C/C=C\C/C=C\C/C=C\C/C=C\C/C=C\CCC(=O)O` [DHA, (4Z,7Z,10Z,13Z,16Z,19Z)-docosa-4,7,10,13,16,19-hexaenoic acid], the “anti-inflammatory capability among ALA, DHA and EPA” value in data set [6] was “highest anti-inflammatory capability”.
With `C[S+](C)[O-]` [dimethyl sulfoxide], the LD50 in data set [7] is recorded as 14,500 mg/kg.
On to `CC(O)CO` (centres unmarked) [propylene glycol], for which the LD50 in data set [7] is listed as 20,000 mg/kg.
